Experiments:
calmodulin (CaM) = experiment: Swelling response of CaM-integrated hydrogel / hydrogel microdomes to free ligand
Text: The hydrogel can swell when chlorpromazine (CPZ) is integrated into the hydrogel polymer network because immobilized phenothiazine is displaced from CaM by free CPZ. Phenothiazine is released from its CaM binding site and replaced by CPZ creating a relaxation of polymer chains. This relaxation allows more water to permeate the porous hydrogel polymer network, thus hydrogel swelling occurs.
In the first stage, CaM is bound to a phenothiazine. In the presence of CPZ, competitive binding occurs, and the non-covalent crosslinking is released creating expansion of the hydrogel network.
While the collective array can be used to visually screen for an analyte, the individually addressable microdome array is analyzed using a laser screening system to detect the change in height of the microdomes. The initial size of the hydrogel microdome, including the height of the microdome, is determined using the stylus profilometer. […] The microdome array 22 on substrate 24 is placed on a stage micrometer 26. A light generating means 14 such as a laser diode generates a light beam 16 that is reflected off the top of microdome 22 to produce a diffracted light 18 that is captured by photodiode 20. By positioning the microdome 22 on the stage micrometer 26, the initial height of the microdome can be determined by the amount of light deflected off the top of the microdome 22 by counting the number of photons detected by the photodiode 20.
After the initial reading, the microdome is not moved. A test solution is applied to the microdome for about 1 to 3½ minutes and then is removed and if the microdome swells, the amount of photons emitted off the microdome will change due to the swelling. The swell time for the hydrogel microdome is about 3½ minutes after the solution is applied to the microdome. […] After the test, the stage micrometer can be adjusted to bring another near by microdome in the array into the sensing area.

calmodulin (CaM109) = experiment: Fluorescence assay of conformation change in fluorophore (MDCC)-labeled CaM109 monomer and dimer; assay type: binding; conditions: added to labeled calmodulin molecules that had already bound calcium
Text: In order to measure the extent of conformation change in CaM molecules in response to calcium and phenothiazine binding, a system has been developed in which a fluorophore is conjugated to a cysteine residue that had been inserted at amino acid 109 of wild type CaM using methods well known to those skilled in the art. This CaM mutant was called CaM109. The fluorescence of the fluorophore increases as the conformation of CaM changes in the presence of calcium.
Since wild-type CaM contains no cysteines, the addition of a cysteine to CaM at a desired position within the protein, allows for labeling of the protein at this position. Such labeling was done using a thiol-reactive fluorescent label called N-[2-(1-maleimidyl)ethyl]-7-(diethylamino)coumarin-3-carboxamide, or MDCC.
The fluorescence response of MDCC-labeled, CaM109 molecules was recorded in the absence and presence of 3×10^6 M Ca^++. The Ca^++ concentration was controlled by EGTA at pH 8.0, and the free Ca^++ concentrations were calculated using the software program Chelator (Haugland, 1996, Handbook of Fluorescent Probes and Research Chemicals, 6th edition, Molecular Probes, Eugene, Oreg., p. 52).

Compound | binding affinity for CaM (relative) (calmodulin (CaM); displacement of immobilized phenothiazine from the CaM binding site in the hydrogel) | swelling of protein-hydrogel microdomes (calmodulin (CaM); microdomes on polymethyl methacrylate or silanized glass slides) | swelling of CaM hydrogel with immobilized phenyl ligand (4-phenyl-1-butene) (calmodulin (CaM); phenothiazine derivative replaced with 4-phenyl-1-butene, swelling irreversible, FIG. 17) | fluorescence quenched (calmodulin (CaM109)) [%]
CN(C)CCCN1c2ccccc2Sc2ccc(Cl)cc21 [chlorpromazine] | higher binding affinity for CaM than phenothiazine | swelling occurred | the hydrogel swells | –
c1ccc2c(c1)Nc1ccccc1S2 [phenothiazine] | – | – | – | 100

Source: US7625951B2, “Stimuli-responsive hydrogel microdomes integrated with genetically engineered proteins for high-throughput screening of pharmaceuticals” (University of Kentucky Research Foundation, priority 2000, dated 2009)
